Measurements taken from the NIST ThermoML archive (doi:10.1016/j.fluid.2008.02.005).

Tests used:
[1] = xn = mol fraction of the nth substance listed; details: 101 kPa, Liquid
[2] = 101.33 kPa, Liquid

CCCCCCOCCOCCO [2-(2-hexyloxyethoxy)ethanol] + CCCO
mass density [kg/m3], [1]
Details | 288.15 K | 298.15 K | 308.15 K
x1 = 0.1085 | 837.518 | 829.325 | 820.919
x1 = 0.1608 | 848.615 | 840.381 | 831.968
x1 = 0.2102 | 857.751 | 849.425 | 841.022
x1 = 0.2477 | 863.891 | 855.521 | 847.161
x1 = 0.2972 | 871.227 | 862.829 | 854.397
x1 = 0.3493 | 878.129 | 869.65 | 861.101
x1 = 0.4048 | 884.6 | 876.088 | 867.464
x1 = 0.46 | 890.404 | 881.84 | 873.153
x1 = 0.5003 | 894.261 | 885.64 | 876.925
x1 = 0.5584 | 899.282 | 890.668 | 881.873
x1 = 0.6066 | 903.088 | 894.428 | 885.633
x1 = 0.6604 | 906.948 | 898.225 | 889.461
x1 = 0.6964 | 909.32 | 900.561 | 891.847
x1 = 0.7532 | 912.745 | 903.981 | 895.267
x1 = 0.8054 | 915.595 | 906.826 | 898.1
x1 = 0.8563 | 918.152 | 909.394 | 900.587
x1 = 0.9044 | 920.357 | 911.598 | 902.735
x1 = 0.9593 | 922.69 | 913.937 | 905.015

CCCCCCOCCOCCO [2-(2-hexyloxyethoxy)ethanol] + CO
mass density [kg/m3], [1]
Details | 288.15 K | 298.15 K | 308.15 K
x1 = 0.1165 | 853.467 | 844.018 | 834.816
x1 = 0.162 | 865.705 | 856.244 | 846.965
x1 = 0.2113 | 875.875 | 866.451 | 857.177
x1 = 0.266 | 884.716 | 875.458 | 866.337
x1 = 0.3119 | 890.88 | 881.656 | 872.742
x1 = 0.3606 | 896.388 | 887.19 | 878.481
x1 = 0.4012 | 900.31 | 891.16 | 882.585
x1 = 0.4577 | 904.872 | 895.844 | 887.363
x1 = 0.5071 | 908.159 | 899.262 | 890.741
x1 = 0.5578 | 911.041 | 902.168 | 893.568
x1 = 0.6037 | 913.218 | 904.353 | 895.701
x1 = 0.6644 | 915.682 | 906.87 | 898.078
x1 = 0.7102 | 917.283 | 908.456 | 899.602
x1 = 0.7533 | 918.633 | 909.864 | 901.011
x1 = 0.7928 | 919.837 | 911.054 | 902.199
x1 = 0.8517 | 921.511 | 912.714 | 903.777
x1 = 0.9 | 922.714 | 913.911 | 905.244
x1 = 0.9674 | 924.001 | 915.182 | 906.508

CCCCCCCO [heptan-1-ol]
[2]
Details | mass density [kg/m3]
288.15 K | 825.943
298.15 K | 818.789
308.15 K | 812.385

CO [methanol]
[2]
Details | mass density [kg/m3]
288.15 K | 795.969
298.15 K | 786.548
308.15 K | 777.067

CCCCCO [pentan-1-ol]
[2]
Details | mass density [kg/m3]
288.15 K | 818.336
298.15 K | 811.001
308.15 K | 803.302

CCCO [propan-1-ol]
[2]
Details | mass density [kg/m3]
288.15 K | 807.898
298.15 K | 799.666
308.15 K | 791.765
